Columns and labels:
[1] = target: Tyrosine-protein kinase Fer (Homo sapiens) (UniProt P16591); assay: Inhibition of recombinant human GST-tagged FER (541 to 822 residues) expressed in baculovirus expression system at 500 nM using Tyr 05 peptide as substrate incubated for 1 hr in presence of ATP at its Km concentration by Z'-LYTE assay relative to control
[2] = target: Tyrosine-protein kinase SYK (Homo sapiens) (UniProt P43405); assay: Inhibition of recombinant human N-terminal GST-tagged full length SYK expressed in baculovirus expression system at 500 nM using Tyr 02 as substrate incubated for 1 hr in presence of ATP at its Km concentration by Z'-LYTE assay relative to control
[3] = target: Platelet-derived growth factor receptor beta (Homo sapiens) (UniProt P09619); assay: Inhibition of recombinant human His-tagged PDGFRbeta cytoplasmic domain expressed in baculovirus expression system at 500 nM using Tyr 04 as substrate incubated for 1 hr in presence of ATP at its Km concentration by Z'-LYTE assay relative to control
[4] = target: Tyrosine-protein kinase Yes (Homo sapiens) (UniProt P07947); assay: Inhibition of full length recombinant GST-tagged human YES1 expressed in baculovirus expression system at 500 nM using Tyr 02 as substrate incubated for 1 hr in presence of ATP at its Km concentration by Z'-LYTE assay relative to control
[5] = target: Vascular endothelial growth factor receptor 1 (Homo sapiens) (UniProt P17948); assay: Inhibition of recombinant human GST-tagged FLT1 catalytic domain (781 to 1338 residues) expressed in baculovirus expression system at 500 nM using Tyr 04 peptide as substrate incubated for 1 hr in presence of ATP at its Km concentration by Z'-LYTE assay relative to control
[6] = target: T1, Serine/threonine-protein kinase Nek1 (Homo sapiens) (UniProt Q96PY6); assay: Inhibition of recombinant human GST-tagged NEK1 (1 to 505 residues) expressed in baculovirus expression system at 500 nM using Ser/Thr 07 as substrate incubated for 1 hr in presence of ATP at its Km concentration by Z'-LYTE assay relative to control
T1 sequence (whole entry): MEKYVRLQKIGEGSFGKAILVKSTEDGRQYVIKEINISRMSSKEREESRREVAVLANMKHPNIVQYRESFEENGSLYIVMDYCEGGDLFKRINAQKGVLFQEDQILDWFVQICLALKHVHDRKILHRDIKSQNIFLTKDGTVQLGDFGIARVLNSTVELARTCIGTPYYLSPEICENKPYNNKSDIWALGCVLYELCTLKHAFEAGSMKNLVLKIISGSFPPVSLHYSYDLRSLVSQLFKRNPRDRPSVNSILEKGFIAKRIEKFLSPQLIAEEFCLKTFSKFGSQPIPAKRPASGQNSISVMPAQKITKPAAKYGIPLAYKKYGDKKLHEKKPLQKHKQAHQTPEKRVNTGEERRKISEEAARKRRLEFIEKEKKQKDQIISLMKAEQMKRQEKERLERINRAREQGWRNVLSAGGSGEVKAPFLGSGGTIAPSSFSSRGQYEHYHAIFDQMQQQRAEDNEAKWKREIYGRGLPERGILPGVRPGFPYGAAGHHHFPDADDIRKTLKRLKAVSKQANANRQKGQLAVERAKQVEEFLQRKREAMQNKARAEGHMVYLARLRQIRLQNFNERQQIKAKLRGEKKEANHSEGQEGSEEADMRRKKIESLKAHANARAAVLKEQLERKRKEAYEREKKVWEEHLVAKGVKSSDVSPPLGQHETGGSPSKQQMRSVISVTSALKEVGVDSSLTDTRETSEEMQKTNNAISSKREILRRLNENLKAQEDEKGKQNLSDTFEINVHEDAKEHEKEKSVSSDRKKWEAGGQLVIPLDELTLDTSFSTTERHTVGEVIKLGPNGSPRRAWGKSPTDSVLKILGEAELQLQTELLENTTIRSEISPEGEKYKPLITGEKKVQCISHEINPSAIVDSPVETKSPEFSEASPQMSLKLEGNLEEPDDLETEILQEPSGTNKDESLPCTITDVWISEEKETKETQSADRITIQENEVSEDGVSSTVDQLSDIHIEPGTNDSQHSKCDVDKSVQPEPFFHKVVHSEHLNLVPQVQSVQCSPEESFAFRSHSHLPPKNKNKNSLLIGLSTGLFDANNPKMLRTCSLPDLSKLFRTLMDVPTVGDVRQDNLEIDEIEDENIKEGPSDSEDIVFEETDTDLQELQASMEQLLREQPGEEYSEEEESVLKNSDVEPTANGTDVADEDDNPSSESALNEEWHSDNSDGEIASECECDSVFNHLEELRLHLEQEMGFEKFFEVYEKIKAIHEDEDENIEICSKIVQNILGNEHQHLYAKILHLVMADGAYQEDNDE

A-431 = assay: Antiproliferative activity against human A431 cells; type: functional, cell-based
[7] = target: Tyrosine-protein kinase FRK (Homo sapiens) (UniProt P42685); assay: Inhibition of recombinant human GST-tagged full length FRK expressed in baculovirus expression system at 500 nM using Tyr 01 peptide as substrate incubated for 1 hr in presence of ATP at its Km concentration by Z'-LYTE assay relative to control
[8] = target: Tyrosine-protein kinase Blk (Homo sapiens) (UniProt P51451); assay: Inhibition of recombinant human His-tagged full length BLK expressed in baculovirus expression system at 500 nM using Tyr 01 peptide as substrate incubated for 1 hr in presence of ATP at its Km concentration by Z'-LYTE assay relative to control
[9] = target: Receptor tyrosine-protein kinase erbB-2 (Homo sapiens) (UniProt P04626); assay: Inhibition of recombinant human His-tagged ERBB2 (676 to 1255 residues) expressed in baculovirus expression system at 500 nM using Tyr 06 peptide as substrate incubated for 1 hr in presence of ATP at its Km concentration by Z'-LYTE assay relative to control
[10] = target: Tyrosine-protein kinase HCK (Homo sapiens) (UniProt P08631); assay: Inhibition of recombinant full length N-terminal GST-tagged human HCK expressed in baculovirus expression system at 500 nM using Tyr 02 as substrate incubated for 1 hr in presence of ATP at its Km concentration by Z'-LYTE assay relative to control
Chain of Tyrosine-protein kinase HCK (Homo sapiens) (P08631 2-526 limits assumed): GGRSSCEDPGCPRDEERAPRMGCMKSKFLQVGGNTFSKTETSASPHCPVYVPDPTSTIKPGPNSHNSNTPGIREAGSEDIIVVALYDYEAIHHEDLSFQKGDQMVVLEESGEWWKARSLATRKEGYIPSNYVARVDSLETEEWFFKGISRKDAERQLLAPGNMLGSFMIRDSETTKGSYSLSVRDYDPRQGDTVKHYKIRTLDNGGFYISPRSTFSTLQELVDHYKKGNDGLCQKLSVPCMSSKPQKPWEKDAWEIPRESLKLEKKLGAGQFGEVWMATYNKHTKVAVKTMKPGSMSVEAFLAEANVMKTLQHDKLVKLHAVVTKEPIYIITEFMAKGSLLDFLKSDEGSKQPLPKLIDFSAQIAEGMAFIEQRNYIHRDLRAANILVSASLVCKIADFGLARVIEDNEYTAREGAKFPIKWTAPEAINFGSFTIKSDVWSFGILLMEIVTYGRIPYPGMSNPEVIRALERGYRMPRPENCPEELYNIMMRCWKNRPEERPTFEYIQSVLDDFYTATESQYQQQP

Chain of Tyrosine-protein kinase Fer (Homo sapiens) (P16591 whole entry, looked up, the tested form may be a part): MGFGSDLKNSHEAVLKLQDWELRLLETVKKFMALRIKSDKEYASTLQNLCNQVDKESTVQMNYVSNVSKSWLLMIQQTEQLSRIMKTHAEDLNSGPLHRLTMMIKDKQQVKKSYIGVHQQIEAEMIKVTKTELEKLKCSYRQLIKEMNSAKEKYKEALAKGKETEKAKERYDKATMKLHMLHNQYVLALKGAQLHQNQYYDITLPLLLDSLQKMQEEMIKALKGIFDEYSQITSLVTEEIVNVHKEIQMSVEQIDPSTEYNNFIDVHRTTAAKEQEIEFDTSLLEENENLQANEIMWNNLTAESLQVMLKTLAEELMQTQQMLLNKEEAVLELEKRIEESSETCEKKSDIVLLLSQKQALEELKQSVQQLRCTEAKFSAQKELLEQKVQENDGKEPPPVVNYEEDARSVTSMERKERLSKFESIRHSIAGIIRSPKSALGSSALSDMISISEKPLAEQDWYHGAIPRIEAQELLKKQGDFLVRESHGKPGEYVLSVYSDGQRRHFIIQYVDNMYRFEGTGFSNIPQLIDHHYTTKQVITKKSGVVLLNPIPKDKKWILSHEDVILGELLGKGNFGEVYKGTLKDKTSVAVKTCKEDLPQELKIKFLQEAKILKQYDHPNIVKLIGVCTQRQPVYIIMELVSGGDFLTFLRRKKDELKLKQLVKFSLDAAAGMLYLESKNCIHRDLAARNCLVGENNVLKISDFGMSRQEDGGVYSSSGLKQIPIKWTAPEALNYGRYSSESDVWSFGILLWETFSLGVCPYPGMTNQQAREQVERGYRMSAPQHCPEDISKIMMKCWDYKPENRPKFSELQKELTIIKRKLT
Chain of Tyrosine-protein kinase Yes (Homo sapiens) (P07947 2-543 limits assumed): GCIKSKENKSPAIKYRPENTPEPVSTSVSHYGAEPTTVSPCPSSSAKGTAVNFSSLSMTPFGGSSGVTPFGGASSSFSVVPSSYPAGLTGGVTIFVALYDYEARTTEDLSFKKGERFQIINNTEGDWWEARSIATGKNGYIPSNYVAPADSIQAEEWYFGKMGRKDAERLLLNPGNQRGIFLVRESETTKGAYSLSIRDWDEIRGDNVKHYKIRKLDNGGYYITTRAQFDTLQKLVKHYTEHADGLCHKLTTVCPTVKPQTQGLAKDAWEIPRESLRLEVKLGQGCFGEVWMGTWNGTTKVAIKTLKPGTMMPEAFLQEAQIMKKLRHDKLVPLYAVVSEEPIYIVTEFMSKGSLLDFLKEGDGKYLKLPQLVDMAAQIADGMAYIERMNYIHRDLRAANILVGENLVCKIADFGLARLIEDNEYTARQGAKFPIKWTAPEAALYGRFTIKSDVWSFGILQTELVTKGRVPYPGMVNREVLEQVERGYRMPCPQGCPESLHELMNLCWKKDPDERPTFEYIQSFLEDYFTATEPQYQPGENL
Chain of Vascular endothelial growth factor receptor 1 (Homo sapiens) (P17948 whole entry, the tested form may be a part): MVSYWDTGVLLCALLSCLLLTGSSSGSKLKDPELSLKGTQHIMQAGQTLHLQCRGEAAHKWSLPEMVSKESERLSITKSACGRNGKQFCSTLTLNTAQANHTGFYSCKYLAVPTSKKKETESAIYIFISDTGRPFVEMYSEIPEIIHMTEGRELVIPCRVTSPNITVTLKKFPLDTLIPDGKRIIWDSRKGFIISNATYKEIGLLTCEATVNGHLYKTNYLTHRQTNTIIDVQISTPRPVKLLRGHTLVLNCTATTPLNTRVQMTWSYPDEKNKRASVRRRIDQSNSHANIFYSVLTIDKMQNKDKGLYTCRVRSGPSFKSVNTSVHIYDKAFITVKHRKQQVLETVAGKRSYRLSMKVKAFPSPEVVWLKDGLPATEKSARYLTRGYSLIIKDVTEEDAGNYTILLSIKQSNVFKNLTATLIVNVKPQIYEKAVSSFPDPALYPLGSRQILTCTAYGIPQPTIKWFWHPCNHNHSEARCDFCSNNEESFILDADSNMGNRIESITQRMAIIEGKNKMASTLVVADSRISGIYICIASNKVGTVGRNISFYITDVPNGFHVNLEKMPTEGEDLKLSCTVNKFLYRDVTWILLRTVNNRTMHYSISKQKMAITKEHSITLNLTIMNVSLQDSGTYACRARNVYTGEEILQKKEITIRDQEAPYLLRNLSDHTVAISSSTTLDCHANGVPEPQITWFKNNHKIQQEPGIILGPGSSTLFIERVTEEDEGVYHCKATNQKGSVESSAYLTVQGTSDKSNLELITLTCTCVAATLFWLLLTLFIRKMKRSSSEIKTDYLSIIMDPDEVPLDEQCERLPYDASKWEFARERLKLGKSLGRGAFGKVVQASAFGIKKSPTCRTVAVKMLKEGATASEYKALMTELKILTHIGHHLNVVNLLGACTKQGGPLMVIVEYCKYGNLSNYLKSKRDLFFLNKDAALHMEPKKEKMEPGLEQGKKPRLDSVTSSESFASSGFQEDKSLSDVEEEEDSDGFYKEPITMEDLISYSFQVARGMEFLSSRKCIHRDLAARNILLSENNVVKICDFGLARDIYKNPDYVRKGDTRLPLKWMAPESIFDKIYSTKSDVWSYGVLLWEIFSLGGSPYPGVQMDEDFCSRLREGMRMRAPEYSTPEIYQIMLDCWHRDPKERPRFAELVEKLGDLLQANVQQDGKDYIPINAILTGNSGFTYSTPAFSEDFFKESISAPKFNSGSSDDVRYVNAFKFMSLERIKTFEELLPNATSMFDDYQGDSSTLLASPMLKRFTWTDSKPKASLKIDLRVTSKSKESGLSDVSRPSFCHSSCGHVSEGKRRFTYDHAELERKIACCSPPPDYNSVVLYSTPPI
Chain of Tyrosine-protein kinase Blk (Homo sapiens) (P51451 2-505 limits assumed): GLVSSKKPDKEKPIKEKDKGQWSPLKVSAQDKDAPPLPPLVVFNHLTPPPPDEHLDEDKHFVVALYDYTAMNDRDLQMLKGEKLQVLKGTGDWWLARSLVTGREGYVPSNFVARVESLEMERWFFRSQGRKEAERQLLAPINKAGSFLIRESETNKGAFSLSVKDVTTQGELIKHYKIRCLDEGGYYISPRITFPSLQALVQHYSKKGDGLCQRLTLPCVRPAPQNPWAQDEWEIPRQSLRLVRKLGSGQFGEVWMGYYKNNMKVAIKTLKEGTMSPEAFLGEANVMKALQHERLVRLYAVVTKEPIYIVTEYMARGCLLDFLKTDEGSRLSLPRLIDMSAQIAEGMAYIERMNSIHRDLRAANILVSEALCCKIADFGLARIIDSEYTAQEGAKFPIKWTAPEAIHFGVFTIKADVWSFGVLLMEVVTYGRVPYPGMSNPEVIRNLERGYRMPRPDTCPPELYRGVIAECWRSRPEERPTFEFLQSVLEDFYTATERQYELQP
Chain of Tyrosine-protein kinase FRK (Homo sapiens) (P42685 whole entry): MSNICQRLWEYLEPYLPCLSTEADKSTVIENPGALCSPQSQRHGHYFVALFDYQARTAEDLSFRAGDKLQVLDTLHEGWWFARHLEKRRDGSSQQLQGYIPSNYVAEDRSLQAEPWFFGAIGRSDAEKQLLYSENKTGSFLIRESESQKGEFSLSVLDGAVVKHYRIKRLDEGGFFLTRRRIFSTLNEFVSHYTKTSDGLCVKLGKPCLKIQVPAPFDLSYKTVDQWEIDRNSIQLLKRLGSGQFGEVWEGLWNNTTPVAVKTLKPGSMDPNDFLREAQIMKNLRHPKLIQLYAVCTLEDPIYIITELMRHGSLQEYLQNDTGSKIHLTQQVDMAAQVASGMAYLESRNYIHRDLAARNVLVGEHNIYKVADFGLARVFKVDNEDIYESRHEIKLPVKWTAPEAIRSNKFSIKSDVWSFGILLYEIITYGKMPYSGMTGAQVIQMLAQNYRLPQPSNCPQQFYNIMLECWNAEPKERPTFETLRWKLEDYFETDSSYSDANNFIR

SMILES | inhibition [1] [%] | inhibition [2] [%] | inhibition [3] [%] | inhibition [4] [%] | inhibition [5] [%] | inhibition [6] [%] | IC50 (A-431) [nM] | inhibition [7] [%] | inhibition [8] [%] | inhibition [9] [%] | inhibition [10] [%]
OCC[C@@H](Nc1ncnc2[nH]c(-c3ccccc3)cc12)c1ccccc1 | 10 | 5 | 11 | 50 | -4 | 13 | 800 | 14 | 17 | 36 | 31
CCOc1ccccc1-c1cc2c(N[C@H](CO)c3ccccc3)ncnc2[nH]1 | 12 | 11 | 8 | 56 | 3 | 8 | 9200 | 32 | 14 | 35 | 27
CN(C)CCNCc1ccc(-c2cc3c(N[C@H](CO)c4ccccc4)ncnc3[nH]2)cc1F | 7 | 21 | 10 | 81 | 12 | 15 | > 10000 | 49 | 22 | 58 | 36
OC[C@@H](Nc1ncnc2[nH]c(-c3ccccc3)cc12)c1ccccc1 | 6 | 29 | -1 | 65 | 8 | 0 | 300 | 33 | 33 | 53 | 29
C#Cc1cccc(Nc2ncnc3cc(OCCOC)c(OCCOC)cc23)c1 [ERLOTINIB] | -1 | – | -5 | – | – | -8 | 400 | 16 | 38 | 52 | –
COc1ccccc1-c1cc2c(N[C@H](CO)c3ccccc3)ncnc2[nH]1 | 7 | 14 | 0 | 68 | 5 | 1 | – | 36 | 29 | 53 | 30

— ChEMBL document CHEMBL4715760, “Balancing potency, metabolic stability and permeability in pyrrolopyrimidine-based EGFR inhibitors” (Eur J Med Chem, 2016)
